We go through one compound from patent publication US20230203025A1, “ENHANCERS OF PARTICULATE GUANYLYL CYCLASE RECEPTOR A” (Mayo Foundation for Medical Education and Research, priority 2020, published 2023).

Series [1] has as its target T1, particulate guanylyl cyclase B receptor (pGC-B) (Homo sapiens, UniProt P20594).
T1 construct: expressed in transfected cells; host or cells: HEK
T1 sequence (P20594 23-1047): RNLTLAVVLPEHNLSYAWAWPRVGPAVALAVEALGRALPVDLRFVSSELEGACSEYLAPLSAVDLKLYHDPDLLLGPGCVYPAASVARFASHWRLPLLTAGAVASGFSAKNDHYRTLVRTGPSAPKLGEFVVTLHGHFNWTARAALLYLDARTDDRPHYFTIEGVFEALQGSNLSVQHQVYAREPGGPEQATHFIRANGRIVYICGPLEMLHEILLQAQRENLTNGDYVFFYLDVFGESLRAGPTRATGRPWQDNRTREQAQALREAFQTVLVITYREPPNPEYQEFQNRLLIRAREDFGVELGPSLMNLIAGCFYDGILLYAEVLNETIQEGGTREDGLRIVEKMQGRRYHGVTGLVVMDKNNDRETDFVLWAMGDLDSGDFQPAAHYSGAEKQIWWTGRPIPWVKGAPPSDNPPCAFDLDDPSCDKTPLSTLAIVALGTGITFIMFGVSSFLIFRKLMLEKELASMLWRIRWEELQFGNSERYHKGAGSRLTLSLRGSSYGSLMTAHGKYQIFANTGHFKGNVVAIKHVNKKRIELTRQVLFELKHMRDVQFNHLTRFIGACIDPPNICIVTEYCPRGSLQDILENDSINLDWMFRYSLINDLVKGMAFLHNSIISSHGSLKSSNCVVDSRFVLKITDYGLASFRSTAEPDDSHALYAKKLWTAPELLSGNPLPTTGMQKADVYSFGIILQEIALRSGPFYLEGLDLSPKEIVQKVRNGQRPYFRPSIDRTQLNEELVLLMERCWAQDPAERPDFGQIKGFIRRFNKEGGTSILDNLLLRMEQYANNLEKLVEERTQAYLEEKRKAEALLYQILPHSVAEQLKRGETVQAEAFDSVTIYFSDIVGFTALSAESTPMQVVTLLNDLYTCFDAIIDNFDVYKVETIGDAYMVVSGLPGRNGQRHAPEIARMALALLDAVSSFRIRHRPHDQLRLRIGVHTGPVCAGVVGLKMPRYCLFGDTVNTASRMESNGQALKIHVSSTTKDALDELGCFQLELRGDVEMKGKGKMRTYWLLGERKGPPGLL
The series can be described thus: cGMP selectivity assay in HEK cells overexpressing pGC-B with CNP. Format: cell-based. Conditions: in the presence of CNP.

For series [2], the target named is T2, extracellular domain human GC-A recombinant protein (Homo sapiens, UniProt P16066).
T2 construct: extracellular domain human GC-A recombinant protein; purchased MyBioSource, Inc
T2 sequence (P16066 33-473 limits assumed): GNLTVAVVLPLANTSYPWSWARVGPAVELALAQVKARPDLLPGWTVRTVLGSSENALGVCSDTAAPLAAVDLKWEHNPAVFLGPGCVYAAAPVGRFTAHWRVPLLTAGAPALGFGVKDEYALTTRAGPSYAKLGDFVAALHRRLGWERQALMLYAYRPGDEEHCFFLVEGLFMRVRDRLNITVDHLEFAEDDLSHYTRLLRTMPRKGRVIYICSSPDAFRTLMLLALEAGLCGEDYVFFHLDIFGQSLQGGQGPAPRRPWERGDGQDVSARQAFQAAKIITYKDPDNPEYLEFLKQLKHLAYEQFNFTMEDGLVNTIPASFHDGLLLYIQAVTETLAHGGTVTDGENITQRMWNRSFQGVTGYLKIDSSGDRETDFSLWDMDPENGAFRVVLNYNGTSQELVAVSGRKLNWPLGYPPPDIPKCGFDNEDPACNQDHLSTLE
The series can be described thus: SPR GC-A binding studies (Example 7). As to conditions: Compound 19 alone, His-tagged GC-A on Ni-NTA chip. The procedure: Methods (GC-A Binding Studies): Surface plasmon resonance (SPR) measurements were performed at 25° C. on a BI-4500 SPR instrument (Biosensing Instrument Inc. Tempe AZ). […] Data was collected as sensorgrams. Binding kinetics were derived from sensorgrams using BI-Data Analysis Program (Biosensing Instrument, Tempe Ariz.).

A further series is described as follows: LogD. Format: physicochemical. As to conditions: pH 7.4.
Another series in a line: plasma stability, human. The class given is in vitro ADME.
A short description of a further series: plasma stability, mouse. The class given is in vitro ADME.
Series [3] can be described thus: hepatic microsomal stability, human. The class given is in vitro ADME.
Series [4] is described as follows: hepatic microsomal stability, mouse. The class given is in vitro ADME.
Series [5] can be described thus: pharmacokinetics after IV and PO dosing. The class given is in vivo, mouse. Conditions: plasma.
Series [6] has as its system primary human cardiomyocytes (HCMs). Briefly: cGMP generation in primary human cardiomyocytes. Format: cell-based.
Series [7] has as its system primary human renal proximal tubular cells (HRPTCs). The series can be described thus: cGMP generation in primary human renal proximal tubular cells. The class given is cell-based. The text has this:
HRPTCs represent an important human cell line as renal tubular injury and apoptosis leads to impaired renal function and structure.

Series [8] has as its system primary human adipocytes (HAs; visceral and subcutaneous). The series can be described thus: cGMP generation in primary human adipocytes (visceral and subcutaneous). Format: cell-based.
Series [9] relates to human visceral adipocytes. The series can be described thus: browning and glycerol production in human visceral adipocytes. The class given is cell-based.
The subject of series [10] is primary human cardiomyocytes (HCMs). Briefly: inhibition of TGF-beta 1 induced human cardiomyocyte hypertrophy. The class given is cell-based. As to conditions: TGF-β1 5 ng/mL. The procedure: Methods (Inhibition of Human Cardiac Hypertrophy In Vitro): primary human cardiomyocytes (HCMs) were grown in growth media to 50% confluence and then were subjected to serum starvation for 24 hrs. After that, 5 ng/mL of the cytokine TGFβ-1 (R&D Systems) was added to the media for 48 hrs to induce HCM hypertrophy. […] Normal cell buffer served as a vehicle only control, where TGFP-1 alone served as the positive control. Analysis for cell surface area (μm^2) was performed using the ImageJ software at the end of the study.
Results: to further support the cGMP generation in human primary cells leads to favorable biological GC-A mediated, the anti-hypertrophic effects were assessed of Compound 19 on live HCMs stressed with TGF-β1 (5 ng/mL), using a state-of-the-art live cell imaging platform (IncuCyte System).

For `CN(C)CCN1CCCC(C(=O)Nc2nc3c(F)cc(F)cc3s2)C1` (centres unmarked) [Compound 19], the “cGMP activity in cells expressing pGC-B” value in series [1] is “devoid of cGMP activity”. Besides, in series [2], the Kd (usually a measure of binding affinity in units of concentration) came to 390 nM. For the same compound, in “LogD”, the logD (as a rule, lipophilicity at a set pH, counting ionised and neutral species) amounted to 3.04. Moreover, the “Plasma Stability (% remaining at 1 h)” value in the series “plasma stability, human” was 107.4%; in “plasma stability, mouse” it was 109.7%. In addition, the “Hepatic Microsomal Stability (% remaining at 1 h)” value in series [3] is 98.2%; in series [4], 83.6%. Moreover, the clearance in series [5] (Mean IV, mouse, 5 mg/kg) turned out to be 20.3 mL/min/kg. Also, the Vd in [5] (Mean IV, mouse, 5 mg/kg, read-out: Vdss) turned out to be 16.8 L/kg. Moreover, the Cmax (as a rule, the peak of the concentration-time curve) in series [5] (Mean PO, Mouse, 10 mg/kg) stood at 605 ng/mL. Further, in series [5] (Mean PO, Mouse, 10 mg/kg), the half-life (in general, the time needed for the level to fall by half in the phase considered) is 9.13 h. The AUC (usually concentration integrated over time) in series [5] (Mean PO, Mouse, 10 mg/kg, read-out: Exposure (AUC)) came to 7100 ng·h/mL. The bioavailability in series [5] (Mouse, PO 10 mg/kg vs IV 5 mg/kg) was found to be 107%. In addition, the cGMP generation entry in [6] (HCMs, 1, 5 or 10 μM compound in the presence of ANP (10^−10 M)) is “clear increase in cGMP generation”; in series [6] (HCMs, compound alone at similar dose, no ANP), “did not generate cGMP generation”; in series [7] (HRPTCs, 1, 5 or 10 μM compound in the presence of ANP (10^−10 M)), “clear increase in cGMP generation”; in [7] (HRPTCs, compound alone at similar dose, no ANP), “did not generate cGMP generation”; in series [8] (HAs, 1, 5 and 10 μM compound in the presence of ANP (10^−10 M)), “clear increase in cGMP generation”; in series [8] (HAs, compound alone at similar dose, no ANP), “did not generate cGMP generation”. The “expression of the browning protein UCP1” value in series [9] (compound 19 added to ANP) is “augmented UCPI expression”. Moreover, in [9] (compound 19 with ANP, not illustrated), the “ANP induction of glycerol” value was “dose dependently increased”. Besides, the “inhibition of HCM hypertrophy” value in series [10] (Compound 19 (1, 5, 10 μM) with ANP 10^−8 M) is given as “significant inhibition”; in series [10] (Compound 19 (1, 5, 10 μM) with ANP 10^−10 M), “significant inhibition”.
